Data taken from ChEMBL document CHEMBL1155466, “Structure-activity relationships of 6-methyl-benzo[b]thiophene-2-carboxylic acid (1-[(S)-1-benzyl-4-[4-(tetrahydropyran-4-ylmethyl)piperazin-1-yl]butylcarbamoyl]cyclopentyl)amide, potent antagonist of the neurokinin-2 receptor” (J Med Chem, 2010).

Legend:
Cavia porcellus = assay: Inhibition of [beta-Ala8]NKA(4-10)-induced colonic contractions in Dunkin-Hartley guinea pig at 3 umol/kg, iv after 4 hrs relative to control; format: functional
Substance-K receptor = target: T1, Substance-K receptor (Homo sapiens, UniProt P21452); assay: Displacement of [3H]neurokinin A from human NK2 receptor
T1 sequence (P21452 whole entry): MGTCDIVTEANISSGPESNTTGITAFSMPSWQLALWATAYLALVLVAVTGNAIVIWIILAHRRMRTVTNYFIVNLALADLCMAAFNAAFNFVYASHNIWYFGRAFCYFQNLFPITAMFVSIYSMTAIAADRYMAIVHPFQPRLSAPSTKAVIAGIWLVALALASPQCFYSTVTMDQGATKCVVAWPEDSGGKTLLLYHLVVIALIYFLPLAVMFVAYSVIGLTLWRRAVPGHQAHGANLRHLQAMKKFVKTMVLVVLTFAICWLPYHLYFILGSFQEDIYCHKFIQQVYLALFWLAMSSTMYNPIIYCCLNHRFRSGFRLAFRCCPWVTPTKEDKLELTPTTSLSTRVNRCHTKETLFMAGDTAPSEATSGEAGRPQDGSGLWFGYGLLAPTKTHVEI

[1] = target: T2, Substance-K receptor (Cavia porcellus) (UniProt Q64077); assay: Antagonist activity at NK2 receptor in Dunkin-Hartley guinea pig colon smooth muscle assessed as inhibition of [beta-Ala8]NKA(4-10)-induced tissue contraction in presence of NK1 receptor antagonist SR-140333; format: functional, tissue-based
T2 sequence (whole entry): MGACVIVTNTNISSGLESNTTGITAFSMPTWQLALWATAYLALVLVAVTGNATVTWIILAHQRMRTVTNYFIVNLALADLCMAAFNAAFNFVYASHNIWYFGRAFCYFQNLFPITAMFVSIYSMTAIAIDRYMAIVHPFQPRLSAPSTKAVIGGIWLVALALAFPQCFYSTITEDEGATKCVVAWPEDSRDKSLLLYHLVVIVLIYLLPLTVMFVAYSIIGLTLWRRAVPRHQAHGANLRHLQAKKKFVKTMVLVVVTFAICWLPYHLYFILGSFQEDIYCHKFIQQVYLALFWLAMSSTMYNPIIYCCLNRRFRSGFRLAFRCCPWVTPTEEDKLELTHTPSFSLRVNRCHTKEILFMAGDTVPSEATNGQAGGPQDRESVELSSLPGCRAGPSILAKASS

Row | SMILES | Imax (Cavia porcellus) [%] | Ki (Substance-K receptor) [nM] | pKb [1]
1 | CO/N=C(\N1CCOCC1)N1CCN(CCC[C@@H](Cc2ccccc2)NC(=O)C2(NC(=O)c3cc4ccc(C)cc4s3)CCCC2)CC1 | 100 |  | 
2 | Cc1ccc2cc(C(=O)NC3(C(=O)N[C@@H](CCC(=O)N4CCC(N5CCOCC5)CC4)Cc4ccccc4)CCCC3)sc2c1 |  | 2 | 7.8
3 | Cc1ccc2cc(C(=O)NC3(C(=O)N[C@H](Cc4ccccc4)CN4CCN(CC5CCOCC5)CC4)CCCC3)sc2c1 |  | 2 | 7.6
4 | Cc1ccc2cc(C(=O)NC3(C(=O)N[C@@H](CCCN4CCN(Cc5cnc[nH]5)CC4)Cc4ccccc4)CCCC3)sc2c1 |  | 1 | 
5 | Cc1ccc2cc(C(=O)NC3(C(=O)N[C@@H](CCCN4CCN(C(=O)c5cccn5C)CC4)Cc4ccccc4)CCCC3)sc2c1 | 100 | 0.398 | 8.2
6 | Cc1ccc2cc(C(=O)NC3(C(=O)N[C@@H](CCCN4CCC(CN5CCOCC5)CC4)Cc4ccccc4)CCCC3)sc2c1 | 62 | 1 | 7.8
7 | Cc1ccc2cc(C(=O)NC3(C(=O)N[C@@H](CCCN4CCN(C5CCOCC5)CC4)Cc4ccccc4)CCCC3)sc2c1 | 100 | 0.251 | 8.1
8 | Cc1ccc2cc(C(=O)NC3(C(=O)N[C@@H](CCCN4CCN(Cc5ccc(F)cc5)CC4)Cc4ccccc4)CCCC3)sc2c1 | 66 | 0.126 | 8.2
9 | Cc1ccc2cc(C(=O)NC3(C(=O)N[C@@H](CCCN4CCN(S(=O)(=O)C(C)C)CC4)Cc4ccccc4)CCCC3)sc2c1 | 85 | 0.501 | 7.9
10 | Cc1ccc2cc(C(=O)NC3(C(=O)N[C@@H](/C=C/CN4CCN(CC5CCOCC5)CC4)Cc4ccccc4)CCCC3)sc2c1 | 72 | 0.501 | 8.2
11 | Cc1ccc2cc(C(=O)NC3(C(=O)N[C@@H](CCCN4CCN(Cc5ccccn5)CC4)Cc4ccccc4)CCCC3)sc2c1 | 90 | 0.158 | 7.9
12 | Cc1ccc2cc(C(=O)NC3(C(=O)N[C@@H](CCCN4CCN(C(=O)C5CCOCC5)CC4)Cc4ccccc4)CCCC3)sc2c1 | 97 |  | 8.1
13 | Cc1ccc2cc(C(=O)NC3(C(=O)N[C@H](CCCN4CCN(CC5CCOCC5)CC4)Cc4ccccc4)CCCC3)sc2c1 |  | 0.631 | 7.7
14 | Cc1ccc2cc(C(=O)NC3(C(=O)N[C@@H](CCCN4CCN(c5ncccn5)CC4)Cc4ccccc4)CCCC3)sc2c1 | 63 | 0.794 | 8
15 | Cc1ccc2cc(C(=O)NC3(C(=O)N[C@@H](CCCN4CCC(N5CCOCC5)CC4)Cc4ccccc4)CCCC3)sc2c1 |  | 0.501 | 7.8
16 | Cc1ccc2cc(C(=O)NC3(C(=O)N[C@@H](CCCN4CCN(C=O)CC4)Cc4ccccc4)CCCC3)sc2c1 |  | 2 | 7.8
17 | Cc1ccc2cc(C(=O)NC3(C(=O)N[C@@H](CCCN4CCN(Cc5ccncc5)CC4)Cc4ccccc4)CCCC3)sc2c1 | 86 | 0.251 | 8.4
18 | Cc1ccc2oc(C(=O)NC3(C(=O)N[C@@H](CCCN4CCN(CC5CCOCC5)CC4)Cc4ccccc4)CCCC3)cc2c1 | 100 | 0.398 | 8.7
19 | Cc1ccc2cc(C(=O)NC3(C(=O)N[C@@H](CCN4CCN(CC5CCOCC5)CC4)Cc4ccccc4)CCCC3)sc2c1 |  | 15.8 | 
20 | Cc1ccc2cc(C(=O)NC3(C(=O)N[C@@H](CCCN4CCN(S(=O)(=O)N5CCOCC5)CC4)Cc4ccccc4)CCCC3)sc2c1 | 97 | 0.501 | 8.4
21 | Cc1ccc2cc(C(=O)NC3(C(=O)N[C@@H](CCC(=O)N4CCN(C5CCOCC5)CC4)Cc4ccccc4)CCCC3)sc2c1 | 99 | 0.0794 | 8.2

Row | SMILES | Imax (Cavia porcellus) [%] | Ki (Substance-K receptor) [nM] | pKb [1]
22 | Cc1ccc2cc(C(=O)NC3(C(=O)N[C@@H](CCCN4CCN(Cc5ccoc5)CC4)Cc4ccccc4)CCCC3)sc2c1 | 67 | 0.158 | 8.2
23 | Cc1ccc2cc(C(=O)NC3(C(=O)N[C@@H](CCCN4CCC(C(=O)N5CCOCC5)CC4)Cc4ccccc4)CCCC3)sc2c1 | 81 | 0.794 | 7.8
24 | CCS(=O)(=O)N1CCN(CCC[C@@H](Cc2ccccc2)NC(=O)C2(NC(=O)c3cc4ccc(C)cc4s3)CCCC2)CC1 | 77 | 0.631 | 8
25 | Cc1ccc2cc(C(=O)NC3(C(=O)N[C@@H](CCCN4CCC(CCO)CC4)Cc4ccccc4)CCCC3)sc2c1 | 47 | 2 | 8.1
26 | Cc1ccc2cc(C(=O)NC3(C(=O)N[C@@H](CCCN4CCN(Cc5c[nH]cn5)CC4)Cc4ccccc4)CCCC3)sc2c1 | 83 |  | 8
27 | Cc1ccc2cc(C(=O)NC3(C(=O)N[C@@H](CCC(=O)N4CCC(N(C)C5CCOCC5)CC4)Cc4ccccc4)CCCC3)sc2c1 | 90 | 0.316 | 7.8
28 | Cc1ccc2cc(C(=O)NC3(C(=O)N[C@@H](CCCN4CCC(N(C)C5CCOCC5)CC4)Cc4ccccc4)CCCC3)sc2c1 |  | 1.26 | 7.8
29 | Cc1ccc2cc(C(=O)NC3(C(=O)N[C@@H](CCCN4CCN(S(N)(=O)=O)CC4)Cc4ccccc4)CCCC3)sc2c1 | 62 | 0.631 | 7.8
30 | Cc1ccc2cc(C(=O)NC3(C(=O)N[C@@H](CCCN4CCN(c5ccccn5)CC4)Cc4ccccc4)CCCC3)sc2c1 | 76 | 0.631 | 7.8
31 | O=C(NC1(C(=O)N[C@@H](CCCN2CCN(CC3CCOCC3)CC2)Cc2ccccc2)CCCC1)c1cc2ccccc2s1 | 82 | 0.251 | 8.2
32 | CC/N=C(\N1CCOCC1)N1CCN(CCC[C@@H](Cc2ccccc2)NC(=O)C2(NC(=O)c3cc4ccc(C)cc4s3)CCCC2)CC1 |  | 0.794 | 8
33 | Cc1ccc2cc(C(=O)NC3(C(=O)N[C@@H](CCCN4CCN(C(=O)N5CCOCC5)CC4)Cc4ccccc4)CCCC3)sc2c1 | 85 | 0.398 | 8.3
34 | CCOCCCN1CCN(CCC[C@@H](Cc2ccccc2)NC(=O)C2(NC(=O)c3cc4ccc(C)cc4s3)CCCC2)CC1 |  | 0.316 | 7.2
35 | Cc1ccc2cc(C(=O)NC3(C(=O)N[C@@H](CCCN4CCN(S(=O)(=O)N(C)C)CC4)Cc4ccccc4)CCCC3)sc2c1 | 80 | 0.316 | 7.9
36 | Cc1ccc2cc(C(=O)NC3(C(=O)N[C@@H](CCCN4CCN(Cc5cccs5)CC4)Cc4ccccc4)CCCC3)sc2c1 | 83 | 0.158 | 7.7
37 | Cc1ccc2cc(C(=O)NC3(C(=O)N[C@@H](CCCN4CCN(Cc5ccsc5)CC4)Cc4ccccc4)CCCC3)sc2c1 | 88 | 0.158 | 8.2
38 | Cc1ccc2cc(C(=O)NC3(C(=O)N[C@@H](COCCC4CCN(CC5CCOCC5)CC4)Cc4ccccc4)CCCC3)sc2c1 |  |  | 6.9
39 | Cc1ccc2cc(C(=O)NC3(C(=O)N[C@@H](CCCC4CCN(CC5CCOCC5)CC4)Cc4ccccc4)CCCC3)sc2c1 | 67 |  | 7.9
40 | Cl.N[C@@H](CCC(=O)N1CCN(CC2CCOCC2)CC1)Cc1ccccc1 | 99 | 0.0794 | 7.9
41 | Cc1ccc2cc(C(=O)NC3(C(=O)N[C@@H](CCCN4CCN(Cc5cccnc5)CC4)Cc4ccccc4)CCCC3)sc2c1 | 84 | 0.316 | 8.2
